Key:
Assay type in all cases: biochemical
[1] = target: PDE1A (Homo sapiens, UniProt P54750); test: PDE1 inhibition assay (SPA), PDE1A; details: concentration required to reach 50% inhibition of the enzyme; 15 nM tritium labelled cAMP; read-out: PDE1A inhibition (nM or %): IC50
How it was run: (§1)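 A scintillation proximity assay used enzyme sufficient for 20–25% substrate conversion and 15 nM tritiated cAMP in 50 mM HEPES pH 7.6, 10 mM MgCl2, 0.02% Tween20 and 0.1 mg/ml BSA, run for 1 h at room temperature. Reactions were stopped with yttrium silicate SPA beads. IC50 values were derived from activity relative to uninhibited control.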

[2] = target: PDE1B (Homo sapiens, UniProt Q01064); test: PDE1 inhibition assay (SPA), PDE1B; details: concentration required to reach 50% inhibition of the enzyme; 15 nM tritium labelled cAMP; read-out: PDE1B inhibition (nM or %): IC50
PDE1B, sequence (Q01064 whole entry): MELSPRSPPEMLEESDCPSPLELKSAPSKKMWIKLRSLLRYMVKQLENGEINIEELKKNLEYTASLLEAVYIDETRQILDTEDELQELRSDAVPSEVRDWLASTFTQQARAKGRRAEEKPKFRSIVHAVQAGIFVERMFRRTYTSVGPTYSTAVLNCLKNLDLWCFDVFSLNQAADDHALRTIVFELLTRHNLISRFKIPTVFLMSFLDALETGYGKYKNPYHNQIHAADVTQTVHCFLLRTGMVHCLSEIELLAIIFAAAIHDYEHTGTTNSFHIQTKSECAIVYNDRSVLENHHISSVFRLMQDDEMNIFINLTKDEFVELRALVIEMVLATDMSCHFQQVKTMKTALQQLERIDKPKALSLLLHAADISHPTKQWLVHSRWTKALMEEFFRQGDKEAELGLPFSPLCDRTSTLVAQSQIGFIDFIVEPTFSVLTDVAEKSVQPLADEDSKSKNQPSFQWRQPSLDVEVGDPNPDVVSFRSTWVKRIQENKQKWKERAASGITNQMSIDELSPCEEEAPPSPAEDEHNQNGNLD
How it was run: as §1

[3] = target: PDE1C (Homo sapiens, UniProt Q14123); test: PDE1 inhibition assay (SPA), PDE1C; details: concentration required to reach 50% inhibition of the enzyme; 15 nM tritium labelled cAMP; read-out: PDE1C inhibition (nM or %): IC50
PDE1C, sequence (Q14123 whole entry): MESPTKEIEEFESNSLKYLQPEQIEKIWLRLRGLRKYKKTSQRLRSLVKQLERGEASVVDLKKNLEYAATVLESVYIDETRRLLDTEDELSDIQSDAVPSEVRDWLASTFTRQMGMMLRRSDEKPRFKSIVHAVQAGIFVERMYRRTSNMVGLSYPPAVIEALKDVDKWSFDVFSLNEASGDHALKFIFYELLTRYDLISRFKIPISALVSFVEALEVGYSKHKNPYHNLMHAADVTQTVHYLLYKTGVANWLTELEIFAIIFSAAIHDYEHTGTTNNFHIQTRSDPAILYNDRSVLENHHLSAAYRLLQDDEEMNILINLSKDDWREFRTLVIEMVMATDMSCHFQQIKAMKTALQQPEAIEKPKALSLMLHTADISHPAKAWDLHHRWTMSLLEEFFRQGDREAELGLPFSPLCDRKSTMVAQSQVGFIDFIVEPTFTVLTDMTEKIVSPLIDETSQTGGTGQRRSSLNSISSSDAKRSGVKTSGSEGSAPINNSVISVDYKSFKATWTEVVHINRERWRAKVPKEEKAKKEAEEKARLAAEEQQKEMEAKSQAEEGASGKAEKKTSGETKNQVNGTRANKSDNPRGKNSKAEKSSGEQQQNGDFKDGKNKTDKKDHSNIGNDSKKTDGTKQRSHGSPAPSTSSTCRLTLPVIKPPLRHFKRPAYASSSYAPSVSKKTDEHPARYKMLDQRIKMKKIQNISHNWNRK
How it was run: as §1

PDE1A, sequence (P54750 whole entry): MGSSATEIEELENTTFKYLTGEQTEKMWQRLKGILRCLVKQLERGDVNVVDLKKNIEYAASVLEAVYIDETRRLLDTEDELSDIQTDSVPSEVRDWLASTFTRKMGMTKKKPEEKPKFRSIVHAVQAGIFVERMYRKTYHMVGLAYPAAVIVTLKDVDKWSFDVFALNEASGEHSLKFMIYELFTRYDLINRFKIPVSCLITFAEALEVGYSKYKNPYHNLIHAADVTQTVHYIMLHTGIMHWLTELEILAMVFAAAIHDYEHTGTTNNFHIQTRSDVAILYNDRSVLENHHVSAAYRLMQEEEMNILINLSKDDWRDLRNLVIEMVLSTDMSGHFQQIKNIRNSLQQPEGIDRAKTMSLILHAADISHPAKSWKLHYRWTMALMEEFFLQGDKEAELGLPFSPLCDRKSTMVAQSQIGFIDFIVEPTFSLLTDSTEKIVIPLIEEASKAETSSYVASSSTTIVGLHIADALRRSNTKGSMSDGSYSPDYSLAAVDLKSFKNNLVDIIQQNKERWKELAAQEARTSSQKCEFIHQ

SMILES | IC50 [1] [nM] | IC50 [2] [nM] | IC50 [3] [nM]
O=c1c2nnc(C3CCOCC3)n2cc(Cc2ccc(F)cc2)n1Cc1cccc(F)c1 [7-(3-fluorobenzyl)-6-(4-fluorobenzyl)-3-(tetrahydro-2H-pyran-4-yl)-[1,2,4]triazolo[4,3-a]pyrazin-8(7H)-one] | 46 | 43 | 10
O=c1c2nnc(C3CCOCC3)n2cc(Cc2ccc(F)cc2)n1CC1CCCC1 [7-(cyclopentylmethyl)-6-(4-fluorobenzyl)-3-(tetrahydro-2H-pyran-4-yl)-[1,2,4]triazolo[4,3-a]pyrazin-8(7H)-one] | 142 | 140 | 12
O=c1c2nnc(CCF)n2ccn1Cc1cccc(F)c1 [7-(3-Fluorobenzyl)-3-(2-fluoroethyl)-[1,2,4]triazolo[4,3-a]pyrazin-8(7H)-one] | 2900 | 3000 | 620
O=c1c2nnc(C3CCOCC3)n2cc(Cc2ccccc2)n1CC1CCCCC1 [6-benzyl-7-(cyclohexylmethyl)-3-(tetrahydro-2H-pyran-4-yl)-[1,2,4]triazolo[4,3-a]pyrazin-8(7H)-one] | 11 | 11 | 4
COc1ccc(Cn2c(C)cn3c(C4CCOCC4)nnc3c2=O)cc1 [7-(4-methoxybenzyl)-6-methyl-3-(tetrahydro-2H-pyran-4-yl)-[1,2,4]triazolo[4,3-a]pyrazin-8(7H)-one] | 54 | 34 | 37
O=c1c2nnc(C3CC3)n2ccn1Cc1cccc(F)c1 [3-Cyclopropyl-7-(3-fluorobenzyl)-[1,2,4]triazolo[4,3-a]pyrazin-8(7H)-one] | 500 | 780 | 210
CCCc1nnc2c(=O)n(Cc3ccccc3Cl)ccn12 [7-(2-Chlorobenzyl)-3-propyl-[1,2,4]triazolo[4,3-a]pyrazin-8(7H)-one] | 2000 | 2500 | 430
Cc1ccc(Cc2cn3c(C4CCOCC4)nnc3c(=O)n2CC2CCCCC2)cc1 [7-(cyclohexylmethyl)-6-(4-methylbenzyl)-3-(tetrahydro-2H-pyran-4-yl)-[1,2,4]triazolo[4,3-a]pyrazin-8(7H)-one] | 1 | 2 | 1
CCCc1nnc2c(=O)n(Cc3cccc(F)c3)ccn12 [7-(3-Fluorobenzyl)-3-propyl-[1,2,4]triazolo[4,3-a]pyrazin-8(7H)-one] | 1100 | 1200 | 190
CCCc1nnc2c(=O)n(CC3CCC(C)CC3)ccn12 (single isomer, unassigned) [7-(((1 r,4r)-4-methylcyclohexyl)methyl)-3-propyl-[1,2,4]triazolo[4,3-a]pyrazin-8(7H)-one] | 79 | 40 | 120
O=c1c2nnc(C3CCOCC3)n2cc(Br)n1CC1CCCCC1 [6-bromo-7-(cyclohexylmethyl)-3-(tetrahydro-2H-pyran-4-yl)-[1,2,4]triazolo[4,3-a]pyrazin-8(7H)-one] | 12 | 17 | 3

Reference: US10150771B2, “Triazolopyrazinones as PDE1 inhibitors” (H. Lundbeck A/S, priority 2014, dated 2018)
